Data taken from patent publication US7807659B2, “Caspase inhibitors and uses thereof” (Vertex Pharmaceuticals Incorporated, priority 2001, dated 2010).
Square brackets hold non-standard residues; d marks the D form. Peptide text beside a SMILES is read from it. * marks the point of attachment. ξ: configuration not given here. Pip = O=C(O)[C@@H]1CCCCN1; ξD = NC(CC(=O)O)C(=O)O; Bz = O=C(c1ccccc1)*; CH2F = FC*

Legend:
Format in all cases: cell-based
[1] = tested on: caspase-8-mediated apoptotic pathway (Fas induced apoptosis); test: Anti-Fas induced apoptosis assay
Text: Cellular apoptosis can be induced by the binding of Fas ligand (FasL) to its receptor, CD95 (Fas). Conditions for an assay to measure the effect of compounds on the inhibition of the caspase-8-mediated apoptotic pathway can be found in WO01/42216.

[2] = tested on: IL-1β secretion from peripheral blood mononuclear cells; test: Inhibition of IL-1β secretion from mixed population of peripheral blood mononuclear cells (PBMC); conditions: human PBMC, mature IL-1β in supernatant
Text: Processing of pre-IL-1β by caspase-1 can be measured in cell culture using a variety of cell sources. Human PBMC obtained from healthy donors provides a mixed population of lymphocyte and mononuclear cells that produce a spectrum of interleukins and cytokines in response to many classes of physiological stimulators. The assay conditions used for inhibition of IL-1β secretion from mixed population of peripheral blood mononuclear cells can be found in WO01/42216.
The inhibitory potency of the compounds can be represented by an IC50 value, which is the concentration of inhibitor at which 50% of the mature IL-1β is detected in the supernatant as compared to the positive controls.

[3] = tested on: TNF-alpha; test: Inhibition of TNF release from whole blood (LPS induced); conditions: Homo sapiens, LPS 5 ng/ml, overnight, ELISA
Method: Human blood was freshly drawn from healthy donors and collected in vacutainers. Blood was diluted 1:2 in PBS (tissue culture, pyrogen free) in a sterile bottle and inverted to mix well. Aliquots of 0.5 ml of blood mixture were dispensed into cluster tubes in 96 well format.
Dilutions of the test compounds were prepared in RPMI by taking 100 mM DMSO stocks of the compounds and diluting 1:10 in RPMI medium in eppendorfs, to give a 10 mM stock. 1:5 serial dilutions were prepared from the stock solutions.
LPS was kept at a frozen stock (−20 degrees C.) at 1 mg/ml in PBS and then diluted to 1:10 with RPMI medium and finally diluted in the medium again 1:350. 50 μl of each test compound (first concentration was 100 μM) were added to the blood samples and then stimulated with 10 μl LPS (final concentration in the well is 5 ng/ml). The contents were gently mixed using an 8 well multi-channel pipette and incubated at 37° C. over night. At the end of the incubation time, contents were gently mixed, then spun down at 1000×g for 5 mins at 20° C. The serum supernatants were transferred to a fresh plate without disturbing the RBCs and diluted 1:2 with the diluent RD6C.
TNF-alpha levels of supernatants were assayed using the R+D systems ELISA kit, using R+D systems protocol. Samples were read at 450 nm.

| Structure (SMILES) | IC50 [1] | IC50 [2] | IC50 ([3]; exact value in brackets) | IC50 ([3]; stated as bound) |
| --- | --- | --- | --- | --- |
| O=C(O)CC(NC(=O)[C@@H]1CCCCN1C(=O)c1ccccc1)C(=O)CF (stereo partly drawn) [Compound 3, [3S/R,(2S)]-5-Fluoro-4-oxo-3-[1-benzoyl-2-piperidinecarboxamido]-pentanoic acid] (Bz-[Pip]-[ξD]-CH2F) | < 0.05 µM | – | – | – |
| O=C(O)CC(NC(=O)[C@@H]1CCCCN1C(=O)c1ccc(-c2cccc(C(F)(F)F)c2)o1)C(=O)CF (stereo partly drawn) [Compound 10, [3S/R,(2S)]-5-Fluoro-4-oxo-3-[1-[2-(3-trifluoromethyl-phenyl)-furan-4-carbonyl]-2-piperidinecarboxamido]-pentanoic acid] | – | < 0.5 µM | 5.04 µM | < 6 µM |
